Measured values from PubChem BioAssay (NCI).
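Compound exposure: 48 hours, 5 concentrations, 96-well plates. The concentration for 50% growth inhibition is given as GI50. TGI is the concentration that stops growth completely.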

Assays:
Assay in all cases: NCI-60 cell line screen, 48 h
SN12C renal = test system: SN12C renal
HL-60(TB) leukemia = test system: HL-60(TB) leukemia
A549 NSCLC = test system: A549 NSCLC
UACC-257 melanoma = test system: UACC-257 melanoma
MDA-MB-435 = test system: MDA-MB-435
NCI-H226 lung = test system: NCI-H226 lung
NCI/ADR-RES ovarian = test system: NCI/ADR-RES ovarian
A498 renal = test system: A498 renal
ACHN renal = test system: ACHN renal
KM12 colon = test system: KM12 colon

Row | Compound | GI50 (SN12C renal) [µM] | TGI (SN12C renal) [µM] | GI50 (HL-60(TB) leukemia) [µM] | TGI (HL-60(TB) leukemia) [µM] | GI50 (A549 NSCLC) [µM] | TGI (A549 NSCLC) [µM] | GI50 (UACC-257 melanoma) [µM] | TGI (UACC-257 melanoma) [µM] | GI50 (MDA-MB-435) [µM] | TGI (MDA-MB-435) [µM] | GI50 (NCI-H226 lung) [µM] | TGI (NCI-H226 lung) [µM] | GI50 (NCI/ADR-RES ovarian) [µM] | TGI (NCI/ADR-RES ovarian) [µM] | GI50 (A498 renal) [µM] | TGI (A498 renal) [µM] | GI50 (ACHN renal) [µM] | TGI (ACHN renal) [µM] | GI50 (KM12 colon) [µM] | TGI (KM12 colon) [µM]
1 | Fc1ccc(CNc2c3ccccc3nc3ccccc23)cc1 | 2.64 | 10.5 | 2.9 | 8.97 | 2.84 | 10.8 | 2.59 | 7.02 | 1.89 | 4.07 | 2 | 5.44 | 2.33 | 8.07 | 1.36 | 3.24 | 1.93 | 5.64 | 3.27 | 13.6
2 | CCOC(=O)C1=C(N)Oc2c(sc3c(C)cccc23)C1c1ccc(Cl)cc1 (centres undefined) | 3.97 | 16.1 | 2.56 | 7.81 | 3.9 | 18.8 | 13.1 | 30.4 | 0.447 | 2.59 | 5.02 | 19.8 | 0.952 | 7.18 | 1 | 7.09 | 3.17 | 17.6 | 1.62 | 13.3
3 | C=C1C(=O)O[C@H]2[C@H]1CC/C(C=Nc1ccc(C(F)(F)F)cc1N)=C\CC[C@@]1(C)O[C@@H]21 | 10.1 | 26.6 | 3.53 | 14.3 | 17.2 | 32.7 | 12.3 | 25.8 | 4.74 | 17.2 | 10 | 32.2 | 8.09 | 45.2 | 17 | 30.8 | 6.9 | 22.1 | 13.4 | 28.3
4 | C=C1C(=O)O[C@H]2[C@H]1CC/C(COC(=O)/C=C\C(=O)NCc1ccc(Cn3c(=O)sn(-c4ccc(OC)cc4)c3=O)cc1)=C\CC[C@@]1(C)O[C@@H]21 | 0.636 | 1.46 | 0.876 | 3.74 | 0.938 | 2.88 | 0.85 | 1.86 | 0.642 | 1.32 | 1.28 | 5.51 | 1.11 | 4.32 | 0.799 | 1.57 | 0.46 | 1.07 | 0.884 | 1.81
5 | COc1ccc(Nc2c3c4c(cccc4[nH]c2=O)C(=O)c2ccccc2-3)cc1 | 0.0544 | > 100 | 0.0188 | 0.0393 | < 0.0221 | > 32.1 | 1.21 | > 92.4 | 0.0335 | > 100 | 1.2 | > 100 | 0.0227 | 0.0526 | < 0.0192 |  | 0.0406 | > 100 | < 0.0182 | 0.181
